Source: patent US9155770B2

Columns and labels:
ERβ [1] = target: T1, ERβ (Homo sapiens, UniProt Q92731); assay: TNF-RE tkLuc repression in U2OS cells with ERβ; type: cell-based; set-up: expressed in transfected cells
ERβ [2] = target: T1, ERβ; conditions: Example 2
TNF-RE tkLuc = assay: Effect of antiestrogens on TNF-RE tkLuc (Example 2); type: cell-based, human; conditions: in contrast to E2
ERβ [3] = target: T1, ERβ; assay: ERE-tk-Luc luciferase assay in U2OS cells with ERβ; type: cell-based; set-up: expressed in transfected cells; host or cells: U2OS (human osteosarcoma); conditions: competition with the extract
[4] = tested on: estrogen receptor-positive breast cancer; conditions: five years of therapy; cited from earlier work
[5] = tested on: primary invasive breast cancer; conditions: women at high risk for breast cancer; cited from earlier work

T1 sequence (Q92731 whole entry): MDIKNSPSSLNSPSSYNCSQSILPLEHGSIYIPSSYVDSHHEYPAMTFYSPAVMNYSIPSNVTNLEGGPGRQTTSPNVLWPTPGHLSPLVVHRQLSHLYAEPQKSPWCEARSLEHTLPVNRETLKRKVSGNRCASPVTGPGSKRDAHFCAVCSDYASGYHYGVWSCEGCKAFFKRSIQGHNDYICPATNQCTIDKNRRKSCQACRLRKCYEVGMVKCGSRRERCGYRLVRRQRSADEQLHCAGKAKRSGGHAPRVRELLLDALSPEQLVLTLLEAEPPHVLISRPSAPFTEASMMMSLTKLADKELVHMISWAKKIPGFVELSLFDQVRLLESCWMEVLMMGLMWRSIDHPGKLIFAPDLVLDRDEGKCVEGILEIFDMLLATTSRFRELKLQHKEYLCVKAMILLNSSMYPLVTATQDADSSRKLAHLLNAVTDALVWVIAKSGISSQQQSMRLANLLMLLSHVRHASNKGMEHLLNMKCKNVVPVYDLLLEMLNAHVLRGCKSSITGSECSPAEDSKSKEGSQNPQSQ

C[C@]12CC[C@@H]3c4ccc(O)cc4CC[C@H]3[C@@H]1CC[C@@H]2O [E2, estradiol]
repression of TNF-α activation of TNF-RE with ERβ (ERβ [1]): 100% | repression of TNF-α activation of TNF-RE tkLuc with ERβ (ERβ [2]): 60-80%

C[C@]12CC[C@@H]3c4ccc(O)cc4C[C@@H](CCCCCCCCC[S+]([O-])CCCC(F)(F)C(F)(F)F)[C@H]3[C@@H]1CC[C@@H]2O (stereo partly drawn) [ICI 182, 780]
activation of TNF-RE tkLuc (TNF-RE tkLuc): 2 fold

O=C(c1ccc(OCCN2CCCCC2)cc1)c1c(-c2ccc(O)cc2)sc2cc(O)ccc12 [raloxifene]
activation of TNF-RE tkLuc (TNF-RE tkLuc): 2 fold | effect of SERM antagonist on extract-stimulated ERE with ERβ (FIG. 6) (ERβ [3]): inhibited

CC/C(=C(\c1ccccc1)c1ccc(OCCN(C)C)cc1)c1ccccc1 [tamoxifen]
reduction of mortality from breast cancer [4]: 22% | reduction of risk of recurrences [4]: 42% | reduction of risk of primary invasive breast cancer [5]: 49% | activation of TNF-RE tkLuc (TNF-RE tkLuc): 2 fold
